Paper PMC5218480 (PLoS ONE, 2017)

System: MV-4-11 cells
Test: Gene expression microarray analysis (Affymetrix PrimeView) and GSEA
Format: cell-based, human
Parameters: RFU PODN (11730768_x_at) / Fold change /veh PODN (11730768_x_at) / RFU LINC00158 (11744669_a_at) / Fold change /veh LINC00158 (11744669_a_at) / RFU DUSP10 (11751237_a_at) / Fold change /veh DUSP10 (11751237_a_at) / RFU ID3 (11757404_x_at) / Fold change /veh ID3 (11757404_x_at) / RFU PLEKHG5 (11737974_s_at) / Fold change /veh PLEKHG5 (11737974_s_at) / RFU LRRC4B (11730491_at) / Fold change /veh LRRC4B (11730491_at) / RFU GIMAP4 (11747438_a_at) / Fold change /veh GIMAP4 (11747438_a_at) / RFU KRT8 (11758183_x_at) / Fold change /veh KRT8 (11758183_x_at) / RFU CNN1 (11734310_a_at) / Fold change /veh CNN1 (11734310_a_at) / RFU VPS37D (11726825_at) / Fold change /veh VPS37D (11726825_at) / RFU C10orf10 (11716522_x_at) / Fold change /veh C10orf10 (11716522_x_at) / RFU KIR2DL2 /// KIR2DL4 /// KIR2DL5A /// KIR2DL5B /// KIR2DS1 /// KIR2DS2 /// KIR2DS3 /// KIR2DS4 /// KIR3DL3 /// KIR3DL3 /// KIR3DS1 (11738374_at) / Fold change /veh KIR2DL2 /// KIR2DL4 /// KIR2DL5A /// KIR2DL5B /// KIR2DS1 /// KIR2DS2 /// KIR2DS3 /// KIR2DS4 /// KIR3DL3 /// KIR3DL3 /// KIR3DS1 (11738374_at) / RFU C1QL1 (11718748_at) / Fold change /veh C1QL1 (11718748_at) / RFU TMPRSS4 (11747572_a_at) / Fold change /veh TMPRSS4 (11747572_a_at) / RFU HAMP (11756126_x_at) / Fold change /veh HAMP (11756126_x_at) / RFU RNFT2 (11725882_a_at) / Fold change /veh RNFT2 (11725882_a_at) / RFU NR4A2 (11747474_a_at) / Fold change /veh NR4A2 (11747474_a_at) / RFU ABCC12 (11746883_a_at) / Fold change /veh ABCC12 (11746883_a_at) / RFU TMEM136 (11760407_x_at) / Fold change /veh TMEM136 (11760407_x_at) / RFU CLDN22 /// WWC2 (11732394_at) / Fold change /veh CLDN22 /// WWC2 (11732394_at) / RFU HLA-DPB1 (11760878_x_at) / Fold change /veh HLA-DPB1 (11760878_x_at) / RFU SPINT1 (11716480_a_at) / Fold change /veh SPINT1 (11716480_a_at) / RFU GAP43 (11754022_s_at) / Fold change /veh GAP43 (11754022_s_at) / RFU A4GNT (11735810_at) / Fold change /veh A4GNT (11735810_at) / RFU PRB3 (11715151_x_at) / Fold change /veh PRB3 (11715151_x_at) / RFU TUBB4B (11761932_at) / Fold change /veh TUBB4B (11761932_at) / RFU CAPN14 (11732068_a_at) / Fold change /veh CAPN14 (11732068_a_at) / RFU TMCC2 (11721928_a_at) / Fold change /veh TMCC2 (11721928_a_at) / RFU IRGQ (11745062_a_at) / Fold change /veh IRGQ (11745062_a_at) / RFU FAM174B (11720279_a_at) / Fold change /veh FAM174B (11720279_a_at) / RFU TMPRSS4 (11748680_a_at) / Fold change /veh TMPRSS4 (11748680_a_at) / RFU FAM212B (11763350_a_at) / Fold change /veh FAM212B (11763350_a_at) / RFU PLEKHG5 (11743358_a_at) / Fold change /veh PLEKHG5 (11743358_a_at) / RFU ZSCAN30 (11745921_a_at) / Fold change /veh ZSCAN30 (11745921_a_at) / RFU CMKLR1 (11741424_a_at) / Fold change /veh CMKLR1 (11741424_a_at) / RFU LOC101060620 /// MAPK8IP1 (11723275_at) / Fold change /veh LOC101060620 /// MAPK8IP1 (11723275_at) / RFU SPTSSB (11747773_x_at) / Fold change /veh SPTSSB (11747773_x_at) / RFU PRSS12 (11739890_at) / Fold change /veh PRSS12 (11739890_at) / RFU BIN1 (11741810_x_at) / Fold change /veh BIN1 (11741810_x_at) / RFU WNT11 (11732464_a_at) / Fold change /veh WNT11 (11732464_a_at) / RFU C10orf10 (11716521_a_at) / Fold change /veh C10orf10 (11716521_a_at) / RFU C5orf56 (11738089_at) / Fold change /veh C5orf56 (11738089_at) / RFU CYB561 (11721691_x_at) / Fold change /veh CYB561 (11721691_x_at) / RFU ANKRD19P (11752326_a_at) / Fold change /veh ANKRD19P (11752326_a_at) / RFU OR2T12 /// OR2T33 /// OR2T8 (11738714_s_at) / Fold change /veh OR2T12 /// OR2T33 /// OR2T8 (11738714_s_at) / RFU VCAN (11748164_a_at) / Fold change /veh VCAN (11748164_a_at) / RFU JSRP1 (11732532_at) / Fold change /veh JSRP1 (11732532_at) / RFU KRTAP10-11 (11738290_x_at) / Fold change /veh KRTAP10-11 (11738290_x_at) / RFU MYO3A (11730013_a_at) / Fold change /veh MYO3A (11730013_a_at) / RFU EBF3 (11725865_a_at) / Fold change /veh EBF3 (11725865_a_at) / RFU CAMK2N1 (11719241_x_at) / Fold change /veh CAMK2N1 (11719241_x_at) / RFU C5orf56 (11738088_a_at) / Fold change /veh C5orf56 (11738088_a_at) / RFU OLFML3 (11715873_a_at) / Fold change /veh OLFML3 (11715873_a_at) / RFU LOC100653217 /// NTM (11731650_a_at) / Fold change /veh LOC100653217 /// NTM (11731650_a_at) / RFU MAPK11 (11762145_a_at) / Fold change /veh MAPK11 (11762145_a_at) / RFU FIZ1 (11724087_x_at) / Fold change /veh FIZ1 (11724087_x_at) / RFU OASL (11726364_x_at) / Fold change /veh OASL (11726364_x_at) / RFU SOX15 (11748057_x_at) / Fold change /veh SOX15 (11748057_x_at) / RFU CD79A (11719716_a_at) / Fold change /veh CD79A (11719716_a_at) / RFU HIST1H1D (11736915_at) / Fold change /veh HIST1H1D (11736915_at) / RFU CASKIN2 (11723855_a_at) / Fold change /veh CASKIN2 (11723855_a_at) / RFU LOC730098 (11760151_x_at) / Fold change /veh LOC730098 (11760151_x_at) / RFU OR4N2 (11742367_at) / Fold change /veh OR4N2 (11742367_at) / RFU PRRT2 (11749266_a_at) / Fold change /veh PRRT2 (11749266_a_at) / RFU SNX32 (11753110_a_at) / Fold change /veh SNX32 (11753110_a_at) / RFU CDHR5 (11726645_a_at) / Fold change /veh CDHR5 (11726645_a_at) / RFU RCAN1 (11760418_a_at) / Fold change /veh RCAN1 (11760418_a_at) / RFU FAM167A (11723789_a_at) / Fold change /veh FAM167A (11723789_a_at) / RFU FAM26E (11764081_at) / Fold change /veh FAM26E (11764081_at) / RFU ISYNA1 (11749810_s_at) / Fold change /veh ISYNA1 (11749810_s_at) / RFU ACY1 (11761880_at) / Fold change /veh ACY1 (11761880_at) / RFU 11764098_at / Fold change /veh 11764098_at / RFU SAMD14 (11745864_x_at) / Fold change /veh SAMD14 (11745864_x_at) / RFU NPB (11741838_a_at) / Fold change /veh NPB (11741838_a_at) / RFU TMPRSS6 (11731388_a_at) / Fold change /veh TMPRSS6 (11731388_a_at) / RFU KRTAP10-2 (11738614_at) / Fold change /veh KRTAP10-2 (11738614_at) / RFU ARHGAP8 /// PRR5-ARHGAP8 (11727945_x_at) / Fold change /veh ARHGAP8 /// PRR5-ARHGAP8 (11727945_x_at) / RFU KRTAP5-7 /// NADSYN1 (11734609_at) / Fold change /veh KRTAP5-7 /// NADSYN1 (11734609_at) / RFU RASL12 (11751679_a_at) / Fold change /veh RASL12 (11751679_a_at) / RFU CDKN2B (11736163_a_at) / Fold change /veh CDKN2B (11736163_a_at) / RFU PRF1 (11729649_at) / Fold change /veh PRF1 (11729649_at) / RFU, ZNF638 /// ZNF638-IT1 / Fold change vs veh, ZNF638 /// ZNF638-IT1 / RFU, PANK3 / Fold change vs veh, PANK3 / RFU, SH3YL1 / Fold change vs veh, SH3YL1 / RFU, ZEB2 / Fold change vs veh, ZEB2 / RFU, NRIP1 / Fold change vs veh, NRIP1 / RFU, PTTG1IP / Fold change vs veh, PTTG1IP / RFU, CAPN2 / Fold change vs veh, CAPN2 / RFU, MED14 / Fold change vs veh, MED14 / RFU, SNORA58 / Fold change vs veh, SNORA58 / RFU, C1orf63 / Fold change vs veh, C1orf63 / RFU, LRRFIP1 / Fold change vs veh, LRRFIP1 / RFU, NDUFAF7 / Fold change vs veh, NDUFAF7 / RFU, SLC12A2 / Fold change vs veh, SLC12A2 / RFU, IBTK / Fold change vs veh, IBTK / RFU, ESF1 / Fold change vs veh, ESF1 / Fold change vs veh, TMEM50B / RFU, TAOK1 / Fold change vs veh, TAOK1 / RFU, ACBD3 / Fold change vs veh, ACBD3 / RFU, TMA16 / Fold change vs veh, TMA16 / RFU, RWDD3 / Fold change vs veh, RWDD3 / RFU, BCAT1 / Fold change vs veh, BCAT1 / RFU, EDEM3 / Fold change vs veh, EDEM3 / RFU, TMEM33 / Fold change vs veh, TMEM33 / RFU, WDR75 / Fold change vs veh, WDR75 / RFU, AHCTF1 / Fold change vs veh, AHCTF1 / RFU, TFRC / Fold change vs veh, TFRC / RFU, ZDHHC17 / Fold change vs veh, ZDHHC17 / RFU, NOM1 / Fold change vs veh, NOM1 / RFU, ARL8B / Fold change vs veh, ARL8B / RFU, ZBTB11 / Fold change vs veh, ZBTB11 / RFU, TAMM41 / Fold change vs veh, TAMM41 / RFU, KIAA1704 /// LOC100996395 / Fold change vs veh, KIAA1704 /// LOC100996395 / RFU, ING1 / Fold change vs veh, ING1 / RFU, TRMT61B / Fold change vs veh, TRMT61B / RFU, FUBP3 / Fold change vs veh, FUBP3 / RFU, TP53 / Fold change vs veh, TP53 / RFU, TNKS2 / Fold change vs veh, TNKS2 / RFU, ZFP14 / Fold change vs veh, ZFP14 / RFU, ACTR2 / Fold change vs veh, ACTR2 / RFU, PPP3R1 / Fold change vs veh, PPP3R1 / RFU, PIK3R1 / Fold change vs veh, PIK3R1 / RFU, HNRNPA1 / Fold change vs veh, HNRNPA1 / RFU, RNF170 / Fold change vs veh, RNF170 / RFU, ZNF28 / Fold change vs veh, ZNF28 / RFU, RNGTT / Fold change vs veh, RNGTT / RFU, OGT / Fold change vs veh, OGT / RFU, BRD1 / Fold change vs veh, BRD1 / RFU, MARS / Fold change vs veh, MARS / RFU, ZNF655 / Fold change vs veh, ZNF655 / RFU, FAHD1 / Fold change vs veh, FAHD1 / RFU, BDP1 / Fold change vs veh, BDP1 / RFU, LRRCC1 / Fold change vs veh, LRRCC1 / RFU, ARID1A / Fold change vs veh, ARID1A / RFU, ZNF146 / Fold change vs veh, ZNF146 / RFU, ZNF330 / Fold change vs veh, ZNF330 / RFU, GPN3 / Fold change vs veh, GPN3 / RFU, C9orf123 / Fold change vs veh, C9orf123 / RFU, N4BP2L2 / Fold change vs veh, N4BP2L2 / RFU, ARFIP1 / Fold change vs veh, ARFIP1 / RFU, FAM179B / Fold change vs veh, FAM179B / RFU, BCL10 / Fold change vs veh, BCL10 / RFU, UHRF1BP1L / Fold change vs veh, UHRF1BP1L / RFU, BET1 / Fold change vs veh, BET1 / RFU, CNOT2 / Fold change vs veh, CNOT2 / RFU, ZNF268 / Fold change vs veh, ZNF268 / Fold change vs veh, ZNF507 / RFU, DGCR2 / Fold change vs veh, DGCR2 / RFU, WDSUB1 / Fold change vs veh, WDSUB1 / Fold change vs veh, HSP90B1 /// MIR3652 / RFU, ADSS / Fold change vs veh, ADSS / RFU, GK / Fold change vs veh, GK / RFU, ZNF148 / Fold change vs veh, ZNF148 / RFU, TAF9 / Fold change vs veh, TAF9 / RFU, SLC1A5 / Fold change vs veh, SLC1A5 / RFU, SLMO2 / Fold change vs veh, SLMO2 / RFU, ABCC4 / Fold change vs veh, ABCC4 / RFU, LOC101060439 /// RAP1B / Fold change vs veh, LOC101060439 /// RAP1B / RFU, RFX7 / Fold change vs veh, RFX7 / RFU, GTPBP10 / Fold change vs veh, GTPBP10 / RFU, CNEP1R1 / Fold change vs veh, CNEP1R1 / RFU, BIVM-ERCC5 /// ERCC5 / Fold change vs veh, BIVM-ERCC5 /// ERCC5 / RFU, ILF3 / Fold change vs veh, ILF3 / RFU 11762660_at / Fold change /veh 11762660_at / RFU VCAN (11757783_s_at) / Fold change /veh VCAN (11757783_s_at) / RFU DDX43 (11728927_at) / Fold change /veh DDX43 (11728927_at) / RFU KRT8 (11758188_x_at) / Fold change /veh KRT8 (11758188_x_at) / RFU NKD1 (11759106_at) / Fold change /veh NKD1 (11759106_at) / RFU SRD5A1 (11742802_a_at) / Fold change /veh SRD5A1 (11742802_a_at) / RFU TPSAB1 /// TPSB2 (11721975_s_at) / Fold change /veh TPSAB1 /// TPSB2 (11721975_s_at) / RFU GSTM3 (11746129_a_at) / Fold change /veh GSTM3 (11746129_a_at) / RFU IL23R (11737362_x_at) / Fold change /veh IL23R (11737362_x_at) / RFU TMEM51 (11727254_a_at) / Fold change /veh TMEM51 (11727254_a_at) / RFU PIWIL2 (11732686_x_at) / Fold change /veh PIWIL2 (11732686_x_at) / RFU ORM1 (11744905_x_at) / Fold change /veh ORM1 (11744905_x_at) / RFU CCDC152 (11743942_at) / Fold change /veh CCDC152 (11743942_at) / RFU ECM1 (11717891_a_at) / Fold change /veh ECM1 (11717891_a_at) / RFU IL23R (11748794_a_at) / Fold change /veh IL23R (11748794_a_at) / RFU TNFAIP8L3 (11732012_x_at) / Fold change /veh TNFAIP8L3 (11732012_x_at) / RFU MBOAT4 (11741988_at) / Fold change /veh MBOAT4 (11741988_at) / RFU 11764193_at / Fold change /veh 11764193_at / RFU TMEM53 (11763286_at) / Fold change /veh TMEM53 (11763286_at) / RFU MAGEB2 (11727129_at) / Fold change /veh MAGEB2 (11727129_at) / RFU TMEM200A (11744735_a_at) / Fold change /veh TMEM200A (11744735_a_at) / RFU CCDC152 (11751479_a_at) / Fold change /veh CCDC152 (11751479_a_at) / RFU FAM211A (11726209_a_at) / Fold change /veh FAM211A (11726209_a_at) / RFU RGS16 (11746705_a_at) / Fold change /veh RGS16 (11746705_a_at) / RFU VCAN (11755009_s_at) / Fold change /veh VCAN (11755009_s_at) / RFU RHOB (11743442_s_at) / Fold change /veh RHOB (11743442_s_at) / RFU RGS16 (11720943_a_at) / Fold change /veh RGS16 (11720943_a_at) / RFU RGS16 (11720944_at) / Fold change /veh RGS16 (11720944_at) / RFU, VPS4B / Fold change vs veh, VPS4B / RFU, CREB1 / Fold change vs veh, CREB1 / RFU, DNAJC13 / Fold change vs veh, DNAJC13 / RFU, GNAQ / Fold change vs veh, GNAQ / RFU, CDK5R1 / Fold change vs veh, CDK5R1 / RFU, ZRANB3 / Fold change vs veh, ZRANB3 / RFU, CUL4A / Fold change vs veh, CUL4A / RFU, CCNY / Fold change vs veh, CCNY / RFU, UFL1 / Fold change vs veh, UFL1 / RFU, COG3 / Fold change vs veh, COG3 / RFU, DIAPH2 / Fold change vs veh, DIAPH2 / RFU, SKA2 / Fold change vs veh, SKA2 / RFU, AFF3 / Fold change vs veh, AFF3 / RFU, LMF1 / Fold change vs veh, LMF1 / RFU, IPO11 / Fold change vs veh, IPO11 / RFU, DFFB / Fold change vs veh, DFFB / RFU, FOXP1 / Fold change vs veh, FOXP1 / RFU, CARD8 / Fold change vs veh, CARD8 / RFU, STRN3 / Fold change vs veh, STRN3 / RFU, ADK / Fold change vs veh, ADK / RFU, RASSF2 / Fold change vs veh, RASSF2 / RFU, WIPF1 / Fold change vs veh, WIPF1 / RFU, LARP1B / Fold change vs veh, LARP1B / RFU, RASA1 / Fold change vs veh, RASA1 / RFU, RB1 / Fold change vs veh, RB1 / RFU, PPFIA1 / Fold change vs veh, PPFIA1 / RFU, MAT2A / Fold change vs veh, MAT2A / RFU, CCT5 / Fold change vs veh, CCT5 / RFU, WDR92 / Fold change vs veh, WDR92 / RFU, CUX1 / Fold change vs veh, CUX1 / RFU, TTC7A / Fold change vs veh, TTC7A / RFU, TMEM135 / Fold change vs veh, TMEM135 / RFU, DEPTOR / Fold change vs veh, DEPTOR / RFU, CPM / Fold change vs veh, CPM / RFU, DNAJB6 / Fold change vs veh, DNAJB6 / RFU, CACNA2D3 / Fold change vs veh, CACNA2D3 / RFU, DTX4 / Fold change vs veh, DTX4 / RFU, TFCP2 / Fold change vs veh, TFCP2 / RFU, GMCL1 /// GMCL1P1 / Fold change vs veh, GMCL1 /// GMCL1P1 / RFU, AEBP2 / Fold change vs veh, AEBP2 / RFU, SNHG1 /// SNORD22 /// SNORD25 /// SNORD26 /// SNORD27 /// SNORD28 /// SNORD29 /// SNORD31 / Fold change vs veh, SNHG1 /// SNORD22 /// SNORD25 /// SNORD26 /// SNORD27 /// SNORD28 /// SNORD29 /// SNORD31 / Fold change (Aza/veh), C12orf56 (ProbeSet 11735607_a_at) / Fold change (ACY-1035/veh), C12orf56 (ProbeSet 11735607_a_at) / Fold change (Aza/veh), FGFR1OP (ProbeSet 11751329_s_at) / Fold change (ACY-1035/veh), FGFR1OP (ProbeSet 11751329_s_at) / Fold change (Aza/veh), VPS36 (ProbeSet 11739960_a_at) / Fold change (ACY-1035/veh), VPS36 (ProbeSet 11739960_a_at) / RFU SYPL1 (11715823_x_at) / Fold change /veh SYPL1 (11715823_x_at) / RFU IGFBP7 (11715501_s_at) / Fold change /veh IGFBP7 (11715501_s_at) / RFU REEP3 (11722064_at) / Fold change /veh REEP3 (11722064_at) / RFU IGLL1 (11728026_x_at) / Fold change /veh IGLL1 (11728026_x_at): dose or concentration left out as unconfirmed
Details: ProbeSet 11744854_x_at; LIST B

Nc1ccc(-c2cccs2)cc1NC(=O)c1ccc2c(c1)cc(C1CC1)n2CCN1CCOCC1 [ACY-1035]
Fold change vs veh, ZNF28: 0.85
